ChEMBL document CHEMBL1201862, “PubChem BioAssay data set” (2004)
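Following 48 hours of exposure in 96-well plates, responses at five concentrations were used to interpolate endpoints linearly. At the GI50, growth is halved.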 The source made the active and inactive calls. Cut-off read from the data, not from the text of the source: active = GI50 up to about 1.1 µM and inactive = higher.

Tests used:
Assay in all cases: NCI-60 cell line screen, 48 h
SW-620 = test system: SW-620
SF-539 = test system: SF-539
Malme-3M = test system: Malme-3M
UACC-62 = test system: UACC-62
NCI-H226 = test system: NCI-H226
MDA-MB-435 = test system: MDA-MB-435
NCI/ADR-RES = test system: NCI/ADR-RES
OVCAR-5 = test system: OVCAR-5
KM12 = test system: KM12
M14 = test system: M14
EKVX = test system: EKVX
BT-549 = test system: BT-549
HCC 2998 = test system: HCC 2998
SF-295 = test system: SF-295
SF-268 = test system: SF-268
MOLT-4 = test system: MOLT-4
RXF 393 = test system: RXF 393
NCI-H522 = test system: NCI-H522
IGROV-1 = test system: IGROV-1
SNB-75 = test system: SNB-75

SMILES	GI50 (SW-620)	GI50 (SF-539)	GI50 (Malme-3M)	GI50 (UACC-62)	GI50 (NCI-H226)	GI50 (MDA-MB-435)	GI50 (NCI/ADR-RES)	GI50 (OVCAR-5)	GI50 (KM12)	GI50 (M14)	GI50 (EKVX)	GI50 (BT-549)	GI50 (HCC 2998)	GI50 (SF-295)	GI50 (SF-268)	GI50 (MOLT-4)	GI50 (RXF 393)	GI50 (NCI-H522)	GI50 (IGROV-1)	GI50 (SNB-75)
COc1cc(-c2c(C#N)c(N)c(C#N)c3c2COc2ccccc2-3)cc(OC)c1OC	> 100 µM (inactive)	5.35 µM (inactive)	20.3 µM (inactive)	30.2 µM (inactive)	6.92 µM (inactive)	> 100 µM (inactive)	42.5 µM (inactive)	> 100 µM (inactive)	> 100 µM (inactive)	> 100 µM (inactive)	25.6 µM (inactive)	31.6 µM (inactive)	16.6 µM (inactive)	24.9 µM (inactive)	11.5 µM (inactive)	> 76.9 µM (inactive)	16.4 µM (inactive)	84.1 µM (inactive)	26.7 µM (inactive)	
CC1(C)N/C(=C\[N+](=O)[O-])C(C)(C)N1O	> 10 µM (inactive)	> 10 µM (inactive)	> 10 µM (inactive)	> 10 µM (inactive)	> 10 µM (inactive)	> 10 µM (inactive)	> 10 µM (inactive)	> 10 µM (inactive)	> 10 µM (inactive)	> 10 µM (inactive)	> 10 µM (inactive)	> 10 µM (inactive)	> 10 µM (inactive)	> 10 µM (inactive)	> 10 µM (inactive)	> 10 µM (inactive)	> 10 µM (inactive)	> 10 µM (inactive)	> 10 µM (inactive)	> 10 µM (inactive)
Nc1nc(Cl)cc(NCC2(O)CCCC2)n1	> 100 µM (inactive)	> 100 µM (inactive)	> 100 µM (inactive)	> 100 µM (inactive)	> 100 µM (inactive)	> 100 µM (inactive)	> 100 µM (inactive)	> 100 µM (inactive)	> 100 µM (inactive)		> 100 µM (inactive)	> 100 µM (inactive)	> 100 µM (inactive)	> 100 µM (inactive)	> 100 µM (inactive)	> 100 µM (inactive)	> 100 µM (inactive)	> 100 µM (inactive)	> 100 µM (inactive)	> 100 µM (inactive)
CC(C)(C)c1ccc(O)c(C(O)c2ccccn2)c1 (centres undefined)	> 100 µM (inactive)	> 100 µM (inactive)	37.6 µM (inactive)	2.24 µM (inactive)	85.1 µM (inactive)	> 100 µM (inactive)	48 µM (inactive)	31.5 µM (inactive)	94 µM (inactive)		54.1 µM (inactive)	> 100 µM (inactive)	34.4 µM (inactive)	57.5 µM (inactive)	> 100 µM (inactive)	54.2 µM (inactive)	66.8 µM (inactive)	68.7 µM (inactive)	> 10 µM (inactive)	> 100 µM (inactive)
Cc1sc2ncnc(NCCc3ccccc3)c2c1C	25.5 µM (inactive)	15 µM (inactive)	17.5 µM (inactive)	11.9 µM (inactive)	11.6 µM (inactive)	13.7 µM (inactive)	6.22 µM (inactive)	15.4 µM (inactive)	13.4 µM (inactive)	18.1 µM (inactive)	1.68 µM (inactive)	15.2 µM (inactive)	15.1 µM (inactive)	4.78 µM (inactive)	21.8 µM (inactive)	14.9 µM (inactive)	12.3 µM (inactive)	8.59 µM (inactive)	12.7 µM (inactive)	16.4 µM (inactive)
CC(C)(C)OC(=O)N(O)[C@@H]1C=C[C@H](n2cnc3c(N)ncnc32)C1	> 100 µM (inactive)	> 100 µM (inactive)	> 100 µM (inactive)	> 100 µM (inactive)	26.5 µM (inactive)	> 100 µM (inactive)	> 100 µM (inactive)	> 100 µM (inactive)	> 100 µM (inactive)	> 100 µM (inactive)	> 100 µM (inactive)	> 100 µM (inactive)	> 100 µM (inactive)	> 100 µM (inactive)	> 100 µM (inactive)	> 100 µM (inactive)	> 100 µM (inactive)	> 100 µM (inactive)	59 µM (inactive)	33.9 µM (inactive)
CN(C)CCNC(=O)c1cc(-c2nccn2C)nc2ccccc12	> 100 µM (inactive)	> 100 µM (inactive)	> 100 µM (inactive)	> 100 µM (inactive)	> 100 µM (inactive)	> 100 µM (inactive)	> 100 µM (inactive)	> 100 µM (inactive)	> 100 µM (inactive)	> 100 µM (inactive)	> 100 µM (inactive)	81.1 µM (inactive)	> 100 µM (inactive)		> 100 µM (inactive)	> 100 µM (inactive)	45.4 µM (inactive)	> 100 µM (inactive)	> 100 µM (inactive)	> 100 µM (inactive)
CCO/N=C(/CC)c1ccc(Br)s1	> 100 µM (inactive)	> 100 µM (inactive)	> 100 µM (inactive)	> 100 µM (inactive)	> 100 µM (inactive)	> 100 µM (inactive)	> 100 µM (inactive)	> 100 µM (inactive)	> 100 µM (inactive)	> 100 µM (inactive)	> 100 µM (inactive)	> 100 µM (inactive)	> 100 µM (inactive)	> 100 µM (inactive)	> 100 µM (inactive)	53.5 µM (inactive)	> 100 µM (inactive)	> 100 µM (inactive)	> 100 µM (inactive)	> 100 µM (inactive)
Oc1c(Cl)ccc2cccnc12	2.53 µM (inactive)	3.4 µM (inactive)	8.89 µM (inactive)	2.24 µM (inactive)	5.12 µM (inactive)	10.1 µM (inactive)	0.432 µM (active)	5.87 µM (inactive)	4.88 µM (inactive)	3 µM (inactive)	3.43 µM (inactive)	15.5 µM (inactive)	12.7 µM (inactive)	2.79 µM (inactive)	2.72 µM (inactive)	1.84 µM (inactive)	1.83 µM (inactive)	1.63 µM (inactive)	0.223 µM (active)	11.6 µM (inactive)
Cc1cc(NC[C@H](O)[C@H](O)[C@H](O)CO)c(Sc2cc(=O)[nH]c(=O)[nH]2)cc1C	> 62.5 µM (inactive)		> 62.5 µM (inactive)	> 62.5 µM (inactive)	> 62.5 µM (inactive)	> 62.5 µM (inactive)	> 62.5 µM (inactive)	> 62.5 µM (inactive)	> 62.5 µM (inactive)	> 62.5 µM (inactive)	> 62.5 µM (inactive)	> 62.5 µM (inactive)	> 62.5 µM (inactive)	> 62.5 µM (inactive)	> 62.5 µM (inactive)	> 62.5 µM (inactive)	> 62.5 µM (inactive)	> 62.5 µM (inactive)	> 62.5 µM (inactive)	> 62.5 µM (inactive)
CSc1[nH]nc(N)c1C(=O)Nc1ccc(Cl)cc1	57.3 µM (inactive)	66.2 µM (inactive)	63.7 µM (inactive)	90.6 µM (inactive)	25.6 µM (inactive)	> 100 µM (inactive)	35.2 µM (inactive)	> 100 µM (inactive)	55.6 µM (inactive)	68.9 µM (inactive)	> 100 µM (inactive)	89.7 µM (inactive)	99.8 µM (inactive)		79.6 µM (inactive)	51.6 µM (inactive)	22.9 µM (inactive)	27 µM (inactive)	98.9 µM (inactive)	75.5 µM (inactive)
